In patent publication US12358897B2, “Compounds and method of treating COVID-19” (Pfizer Inc., priority 2020, dated 2025):

Key:
[1] = target: T1, full-length SARS-CoV-2 3CL protease (Severe acute respiratory syndrome coronavirus 2, UniProt P0DTD1); assay: SARS-CoV-2 Coronavirus 3C Protease FRET Assay (Dabcyl-KTSAVLQ-SGFRKME-Edans substrate); assay type: biochemical; details: 15 nM enzyme, 25 μM peptide substrate, 60 minutes at 23° C.; Morrison equation fit; read-out: Geometric Mean Ki
T1 construct: measures the activity of full-length SARS-CoV-2 3CL protease

[2] = tested on: SARS-CoV-2 (USA_WA1/2020) in VeroE6 cells enriched for hACE2 expression; assay: microbe, parasite or virus in culture; assay type: cell-based; details: Severe acute respiratory syndrome coronavirus 2, Vero C1008, 72 h, read-out: Geometric Mean EC50

Row | SMILES | Ki [1] | EC50 [2]
1 | COc1cccc2[nH]c(C(=O)N[C@@H](CC(C)C)C(=O)N[C@@H](C[C@@H]3CCNC3=O)C(=O)COC(=O)c3c(C)nc(C)nc3C)cc12 [Example 70, (3S)-3-({N-[(4-methoxy-1H-indol-2-yl)carbonyl]-L-leucyl}amino)-2-oxo-4-[(3S)-2-oxopyrrolidin-3-yl]butyl 2,4,6-trimethylpyrimidine-5-carboxylate] | 5.89 nM | 4800 nM
2 | COc1cccc2[nH]c(C(=O)N[C@@H](CC(C)C)C(=O)N[C@@H](C[C@@H]3CCNC3=O)C(=O)COC(=O)C3(C)CCC3)cc12 [Example 14, (3S)-3-({N-[(4-methoxy-1H-indol-2-yl)carbonyl]-L-leucyl}amino)-2-oxo-4-[(3S)-2-oxopyrrolidin-3-yl]butyl 1-methylcyclobutanecarboxylate] | 348 nM | 505 nM
3 | COc1cccc2[nH]c(C(=O)N[C@@H](CC(C)C)C(=O)N[C@@H](C[C@@H]3CCNC3=O)C(=O)COC(=O)c3ccccc3CN(C)C)cc12 [Example 53, (3S)-3-({N-[(4-methoxy-1H-indol-2-yl)carbonyl]-L-leucyl}amino)-2-oxo-4-[(3S)-2-oxopyrrolidin-3-yl]butyl 2-[(dimethylamino)methyl]benzoate] | 14 nM | 538 nM
4 | COc1cccc2[nH]c(C(=O)N[C@@H](CC(C)C)C(=O)N[C@@H](C[C@@H]3CCNC3=O)C(=O)COC(=O)C(C)C)cc12 [Example 10, (3S)-3-({N-[(4-methoxy-1H-indol-2-yl)carbonyl]-L-leucyl}amino)-2-oxo-4-[(3S)-2-oxopyrrolidin-3-yl]butyl 2-methylpropanoate] | 63.7 nM | 205 nM
5 | COc1cccc2[nH]c(C(=O)N[C@@H](CC(C)C)C(=O)N[C@@H](C[C@@H]3CCNC3=O)C(=O)COC(=O)c3c(C)ncnc3C)cc12 [Example 71, (3S)-3-({N-[(4-methoxy-1H-indol-2-yl)carbonyl]-L-leucyl}amino)-2-oxo-4-[(3S)-2-oxopyrrolidin-3-yl]butyl 4,6-di methylpyrimidine-5-carboxylate] | 0.928 nM | 315 nM
6 | COc1cccc2[nH]c(C(=O)N[C@@H](CC(C)C)C(=O)N[C@@H](C[C@@H]3CCNC3=O)C(=O)COC(=O)c3c(C)cccc3Cl)cc12 [Example 67, (3S)-3-({N-[(4-methoxy-1H-indol-2-yl)carbonyl]-L-leucyl}amino)-2-oxo-4-[(3S)-2-oxopyrrolidin-3-yl]butyl 2-chloro-6-methyl benzoate] | 8.82 nM | 163 nM
7 | CC[C@H](C)C(=O)OCC(=O)[C@H](C[C@@H]1CCNC1=O)NC(=O)[C@H](CC(C)C)NC(=O)c1cc2c(OC)cccc2[nH]1 [Example 18, (3S)-3-({N-[(4-methoxy-1H-indol-2-yl)carbonyl]-L-leucyl}amino)-2-oxo-4-[(3S)-2-oxopyrrolidin-3-yl]butyl (2S)-2-methylbutanoate] | 65.7 nM | 
8 | COc1cccc2[nH]c(C(=O)N[C@@H](CC(C)C)C(=O)N[C@@H](C[C@@H]3CCNC3=O)C(=O)COC(=O)c3c(C)nn(C)c3C)cc12 [Example 48, (3S)-3-({N-[(4-methoxy-1H-indol-2-yl)carbonyl]-L-leucyl}amino)-2-oxo-4-[(3S)-2-oxopyrrolidin-3-yl]butyl 1,3,5-trimethyl-1H-pyrazole-4-carboxylate] | 255 nM | 
9 | COc1cccc2[nH]c(C(=O)N[C@@H](CC(C)C)C(=O)N[C@@H](C[C@@H]3CCNC3=O)C(=O)COC(=O)c3c(C)nc(C4CCOCC4)nc3C)cc12 [Example 75, (3S)-3-({N-[(4-methoxy-1H-indol-2-yl)carbonyl]-L-leucyl}amino)-2-oxo-4-[(3S)-2-oxopyrrolidin-3-yl]butyl 4,6-di methyl-2-(tetrahydro-2H-pyran-4-yl)pyrimidine-5-carboxylate] | 5.5 nM | 
10 | COc1cccc2[nH]c(C(=O)N[C@@H](CC(C)C)C(=O)N[C@@H](C[C@@H]3CCNC3=O)C(=O)COC(=O)c3c(C)cc(C#N)cc3C)cc12 [Example 65, (3S)-3-({N-[(4-methoxy-1H-indol-2-yl)carbonyl]-L-leucyl}amino)-2-oxo-4-[(3S)-2-oxopyrrolidin-3-yl]butyl 4-cyano-2,6-dimethylbenzoate] | 7.67 nM | 51.3 nM
11 | COc1cccc2[nH]c(C(=O)N[C@@H](CC(C)C)C(=O)N[C@@H](C[C@@H]3CCNC3=O)C(=O)COC(=O)c3c(C)cccc3F)cc12 [Example 72, (3S)-3-({N-[(4-methoxy-1H-indol-2-yl)carbonyl]-L-leucyl}amino)-2-oxo-4-[(3S)-2-oxopyrrolidin-3-yl]butyl 2-fluoro-6-methylbenzoate] | 8.91 nM | 
12 | COc1cccc2[nH]c(C(=O)N[C@@H](CC(C)C)C(=O)N[C@@H](C[C@@H]3CCNC3=O)C(=O)COC(=O)C3CCCCC3)cc12 [Example 12, (3S)-3-({N-[(4-methoxy-1H-indol-2-yl)carbonyl]-L-leucyl}amino)-2-oxo-4-[(3S)-2-oxopyrrolidin-3-yl]butyl cyclohexanecarboxylate] | 73.8 nM | 109 nM
13 | COc1cccc2[nH]c(C(=O)N[C@@H](CC(C)C)C(=O)N[C@@H](C[C@@H]3CCNC3=O)C(=O)COC(=O)[C@H]3CCCN3C)cc12 [Example 27, (3S)-3-({N-[(4-methoxy-1H-indol-2-yl)carbonyl]-L-leucyl}amino)-2-oxo-4-[(3S)-2-oxopyrrolidin-3-yl]butyl 1-methyl-D-prolinate] | 0.0321 nM | 
14 | COc1cccc2[nH]c(C(=O)N[C@@H](CC(C)C)C(=O)N[C@@H](C[C@@H]3CCNC3=O)C(=O)COC(=O)c3ccncc3)cc12 [Example 34, (3S)-3-({N-[(4-methoxy-1H-indol-2-yl)carbonyl]-L-leucyl}amino)-2-oxo-4-[(3S)-2-oxopyrrolidin-3-yl]butyl pyridine-4-carboxylate] | 0.598 nM | 
15 | COc1cccc2[nH]c(C(=O)N[C@@H](CC(C)C)C(=O)N[C@@H](C[C@@H]3CCNC3=O)C(=O)COC(=O)CN(C)C)cc12 [Example 4, (3S)-3-({N-[(4-methoxy-1H-indol-2-yl)carbonyl]-L-leucyl}amino)-2-oxo-4-[(3S)-2-oxopyrrolidin-3-yl]butyl N,N-dimethylglycinate] | 2.98 nM | 
16 | CCOc1nccc(C)c1C(=O)OCC(=O)[C@H](C[C@@H]1CCNC1=O)NC(=O)[C@H](CC(C)C)NC(=O)c1cc2c(OC)cccc2[nH]1 [Example 64, (3S)-3-({N-[(4-methoxy-1H-indol-2-yl)carbonyl]-L-leucyl}amino)-2-oxo-4-[(3S)-2-oxopyrrolidin-3-yl]butyl 2-ethoxy-4-methylpyridine-3-carboxylate] | 34.9 nM | 
17 | COc1cccc2[nH]c(C(=O)N[C@@H](CC(C)C)C(=O)N[C@@H](C[C@@H]3CCNC3=O)C(=O)COC(=O)c3cnccc3C)cc12 [Example 23, (3S)-3-({N-[(4-methoxy-1H-indol-2-yl)carbonyl]-L-leucyl}amino)-2-oxo-4-[(3S)-2-oxopyrrolidin-3-yl]butyl 4-methylpyridine-3-carboxylate] | 21.2 nM | 
18 | COc1cccc2[nH]c(C(=O)N[C@@H](CC(C)C)C(=O)N[C@@H](C[C@@H]3CCNC3=O)C(=O)COC(=O)[C@@H]3CCCN3C)cc12 [Example 28, (3S)-3-({N-[(4-methoxy-1H-indol-2-yl)carbonyl]-L-leucyl}amino)-2-oxo-4-[(3S)-2-oxopyrrolidin-3-yl]butyl 1-methyl-L-prolinate] | 2.47 nM | 
